In PubChem BioAssay (NCI):
Several values for one entry are separate records, joined by “and”; a condition that tells them apart may be missing. Identical values can stand only once.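 Step 1: Grow cells in 96-well plates. Step 2: Expose to compound for 48 hours at 5 concentrations. Step 3: Interpolate endpoints linearly; if unreached, use highest concentration. GI50: concentration for 50% inhibition of growth. Definition used: TGI = concentration required for complete inhibition of growth.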

Key:
Assay in all cases: inhibition of tumour cell growth, NCI panel, 48 h
COLO 205 colon = system: COLO 205 colon
M14 melanoma = system: M14 melanoma
MALME-3M melanoma = system: MALME-3M melanoma
OVCAR-8 ovarian = system: OVCAR-8 ovarian
RPMI-8226 leukemia = system: RPMI-8226 leukemia
RXF 393 renal = system: RXF 393 renal
SNB-19 CNS = system: SNB-19 CNS
SW-620 colon = system: SW-620 colon
TK-10 renal = system: TK-10 renal
UACC-257 melanoma = system: UACC-257 melanoma

| SMILES | GI50 (COLO 205 colon) | TGI (COLO 205 colon) | GI50 (M14 melanoma) | TGI (M14 melanoma) | GI50 (MALME-3M melanoma) | TGI (MALME-3M melanoma) | GI50 (OVCAR-8 ovarian) | TGI (OVCAR-8 ovarian) | GI50 (RPMI-8226 leukemia) | TGI (RPMI-8226 leukemia) | GI50 (RXF 393 renal) | TGI (RXF 393 renal) | GI50 (SNB-19 CNS) | TGI (SNB-19 CNS) | GI50 (SW-620 colon) | TGI (SW-620 colon) | GI50 (TK-10 renal) | TGI (TK-10 renal) | GI50 (UACC-257 melanoma) | TGI (UACC-257 melanoma) |
| --- | --- | --- | --- | --- | --- | --- | --- | --- | --- | --- | --- | --- | --- | --- | --- | --- | --- | --- | --- | --- |
| C[C@H]1[C@H](C)CC[C@]2(C(=O)O)CC[C@]3(C)C(=CC[C@@H]4[C@@]5(C)C/C(=C/c6ccco6)C(=O)C(C)(C)[C@@H]5CC[C@]43C)[C@H]12 | 3.6 µM | 15.1 µM | 5.27 µM | 21.2 µM | 8.01 µM | 22.2 µM | 4.63 µM | 24.1 µM | 2.83 µM | 15.7 µM | 4.46 µM | 16.3 µM | 5.07 µM | 23.2 µM | 4.19 µM | 19.5 µM | 7.9 µM | 26.3 µM | 6.49 µM | 29.1 µM |
| CCOC(=O)c1cn(Cc2ccccc2)c(=O)n1Cc1ccccc1 |  | > 100 µM |  | > 100 µM |  | > 100 µM |  | > 100 µM |  | > 100 µM |  | > 100 µM |  | > 100 µM |  | > 100 µM |  | > 100 µM |  | > 100 µM |
| Cn1cc(C2=C(c3cn(CCN)c4ccccc34)C(=O)NC2=O)c2ccccc21 | 2.7 µM | 7.15 µM | 6.15 µM | 19.5 µM | 5.99 µM | 13.5 µM | 6.3 µM | > 22.3 µM | 6.29 µM | 15.5 µM | 3.74 µM | 10.1 µM | 8.13 µM | > 25 µM | 6.25 µM | > 20.1 µM | 6.3 µM | 18.8 µM | 6.17 µM | 15.2 µM |
| CCCCCCCC[N+](C)(CCCCCCCC)CCCCCCCC | 0.169 µM | 0.361 µM | 0.388 µM | 1.63 µM | 0.224 µM | 0.713 µM | 0.411 µM | 1.46 µM | 0.0463 µM | 0.242 µM | 0.39 µM | 1.49 µM | 0.398 µM | 1.54 µM | 0.338 µM | 1.46 µM | 0.352 µM | 1.19 µM | 0.37 µM | 1.15 µM |
| COC(=O)C1=C(CO)C2C=CC1C2 (centres undefined) |  | > 100 µM |  | > 100 µM |  | > 100 µM |  | > 100 µM |  | > 100 µM |  | > 100 µM |  | > 100 µM |  | > 100 µM |  | > 100 µM |  | > 100 µM |
| CC1OC(OCC2COC(O)(Oc3c(-c4ccc(O)c(O)c4)oc4cc(O)cc(O)c4c3=O)C(O)C2O)C(O)C(O)C1O (centres undefined) |  | > 100 µM |  | > 100 µM |  | > 100 µM |  | > 100 µM |  | > 100 µM |  | > 100 µM |  | > 100 µM |  | > 100 µM |  | > 100 µM |  | > 100 µM |
| CSc1nc2sc3cc(Cl)ccc3n2c(=N)c1C#N | 3.33 µM | > 100 µM | > 54.7 µM | > 100 µM | 14.7 µM | > 100 µM | 17.4 µM | > 100 µM | > 80.6 µM | > 100 µM | 19.2 µM | > 100 µM | > 64.2 µM | > 100 µM | 38.2 µM | > 100 µM | 14.1 µM | > 73.3 µM | 6.05 µM | > 100 µM |
| NCCNC(=S)S |  | > 100 µM |  | > 100 µM |  | 30 µM |  | > 100 µM |  | 58.8 µM |  | > 100 µM |  | > 100 µM |  | > 100 µM |  | > 100 µM |  | > 100 µM |
| NC1=N/C(=C2/CCNC(=O)c3[nH]c(Br)cc32)C(=O)N1 | 12.6 µM and 44.3 µM | > 100 µM |  | > 100 µM | 8.82 µM and 25.1 µM | > 100 µM |  | > 100 µM | > 79.9 µM and 15.6 µM | > 100 µM |  | > 100 µM |  | > 100 µM | 2.71 µM and 6.12 µM | > 100 µM |  | > 54.9 µM |  | > 100 µM |
| CCCc1nc2c(C)cc(-c3nc4ccccc4n3C)cc2n1Cc1ccc(-c2ccccc2C(=O)O)cc1 | 42.4 µM | > 100 µM | 34.5 µM | > 100 µM | 45.9 µM | > 100 µM | 35.4 µM | > 100 µM | 17.3 µM | 95.9 µM | 22.4 µM | 82.2 µM | 39.4 µM | > 100 µM | 49.3 µM | > 100 µM | 55.8 µM | > 100 µM | 68.4 µM | > 100 µM |
| Nc1ncnc2c1ncn2C1OC(CO)=CC1O (centres undefined) |  | > 37.5 µM |  | > 37.5 µM |  | > 37.5 µM |  | > 37.5 µM |  | > 37.5 µM |  | > 37.5 µM |  | > 37.5 µM |  | > 37.5 µM |  | > 37.5 µM |  | > 37.5 µM |
| CCn1cnc2c(Nc3cccc(Cl)c3)nc(N[C@@H]3CCCC[C@@H]3N)nc21 | 1.19 µM | 2.6 µM | 1.44 µM | 2.98 µM | 1.57 µM | 3.21 µM | 2.35 µM | 9.53 µM | 1.8 µM | 4.39 µM | 1.35 µM | 2.89 µM | 2.07 µM | 8.17 µM | 1.78 µM | 5.77 µM | 1.95 µM | 5.06 µM | 1.57 µM | 3.11 µM |
| O=C1OC(O)C(Oc2ccc(Cl)cc2)=C1Cl (centres undefined) |  | > 100 µM |  | > 100 µM |  | > 100 µM |  | > 100 µM |  | > 100 µM |  | > 100 µM |  | > 100 µM |  | > 100 µM |  | > 100 µM |  | > 100 µM |
| CCOC(=O)c1sc(Nc2ccc(Cl)cc2)nc1C | 1.83 µM | 3.59 µM | 1.56 µM | 3.32 µM | 1.61 µM | 3.59 µM | 2.89 µM | 7.73 µM | 1.83 µM | 5.65 µM | 2.11 µM | 4.75 µM | 2.08 µM | 6.25 µM | 2.6 µM | 7.54 µM | 2.42 µM | 5.08 µM | 2.11 µM | 4.67 µM |
| Cc1cc(Cl)cc2c1NC(=O)C2(O)C(C)C(=O)c1ccc(Cl)cc1 (centres undefined) |  | > 100 µM |  | > 100 µM |  | > 100 µM |  | > 100 µM |  | 98.2 µM |  | 89.8 µM |  | > 100 µM |  | > 100 µM |  | > 100 µM |  | > 66.2 µM |
| NC(=S)N/N=C1/C(=O)N(c2ccc(Cl)cc2Cl)C(=O)C(=O)C1c1nc2ccccc2s1 (centres undefined) |  | > 100 µM |  | > 100 µM |  | > 100 µM |  | > 100 µM |  | > 100 µM |  | > 100 µM |  | > 100 µM |  | > 100 µM |  | > 100 µM |  | > 100 µM |
